Measured values reported in paper PMC6416395, “B1.12: a novel peptide interacting with the extracellular loop of the EBV oncoprotein LMP1” (Scientific Reports, 2019).
“Also recorded” adds a separate entry of the source. Residues, ends and D or L forms follow the SMILES beside them.

Assays:
B1 peptide = experiment: Competitive inhibition of phage B1.12 binding to B1 peptide; set-up: species or system Epstein-Barr virus (EBV); settings: B1.12 phage 2 × 10^10 pfu, room temperature 1 hour
Experimental: Binding of the B1.12 peptide to its target B1 and to HeLa/LMP1 cells was evaluated by a competitive binding assay. […] Then the B1.12 phage (2 × 10^10 pfu) was added to each well and incubated for 1 hour. After washing, the bound phage was detected by the anti-M13 antibody as described previously. For the competition test on HeLa cells expressing or not the viral oncoprotein LMP1, cells were seeded into 96-well plates (10^4 cells/well), washed twice in PBS, and fixed with 4% paraformaldehyde for 30 minutes at room temperature. Synthetic peptides at concentrations of 50, 75, 100 and 200 µM were incubated with the cells at 37 °C for 1 hour and the experiment was carried out as described above. All experiments were done in triplicate and the mean values of OD were used to calculate the rate of competitive inhibition according to the following formula: inhibition ratio = (OD control − OD phage)/OD control × 100, where OD control and OD phage represent the OD450 nm values of phage binding on cells incubated with PBS and with the peptide, respectively.

pAkt = experiment: Western blot pAkt in C666.1 cells; type: cell-based; settings: 100 µM peptide, 24 hours, C666.1, Western blot, n = 4 biological replicates
Experimental: Cells were cultured at 80% confluency and then incubated with 100 µM B1.12 peptide for 24 hours. Subsequently, cells were washed twice with cold PBS and scrapped in ice-cold RIPA buffer (50 mM Tris pH 7.4, 5 mM EDTA pH 8.0, 150 mM NaCl, 0.1% SDS, 0.5% NaDOC, 0.5% NP 40) supplemented with 5 mM PMSF. After 30 minutes on ice, cells were sonicated, and cell debris were removed by centrifugation at 15,000 rpm at 4 °C for 15 minutes. Proteins were quantified using the Bradford Protein Assay (Bio-Rad) according to the manufacturer’s specifications. Thirty μg of total proteins were separated on 10% SDS–PAGE and transferred to PVDF membrane (Amersham Hybond-P). The membranes were blocked at 4 °C overnight with PBS 0.1% Tween 20 containing 5 mg/mL skimmed milk, prior to be incubated with pAkt (Biotechne, diluted 1/2500) pRelA536 (Biotechne, diluted 1/1000), and Tubulin (Thermofisher, diluted 1/1000) antibodies for 2 hours at room temperature, followed by incubation with anti-rabbit or anti-mouse conjugated to horseradish peroxidase at room temperature for 1 hour. The target protein band was visualized using the enhanced chemiluminescence detection system (Amersham ECL Prime Western Blotting Detection Reagent) and luminescent bands were visualized using the VERSADOC imaging system. Band densities were assessed by Image-J software.

HeLa/LMP1 cells = experiment: Competitive inhibition of phage B1.12 binding to HeLa/LMP1 cells; type: cell-based; settings: peptide 100 µM, 37 °C 1 hour, triplicate mean
Experimental: Binding of the B1.12 peptide to its target B1 and to HeLa/LMP1 cells was evaluated by a competitive binding assay. For competition on B1 as a target, the B1.12 peptide or the unrelated control peptide were incubated at concentrations of 1, 5, 10, 25, 50 and 100 µM with B1 peptide (100 µl of a solution of 1 mg/mL in NaHCO3) at room temperature for 1 hour. Then the B1.12 phage (2 × 10^10 pfu) was added to each well and incubated for 1 hour. After washing, the bound phage was detected by the anti-M13 antibody as described previously. For the competition test on HeLa cells expressing or not the viral oncoprotein LMP1, cells were seeded into 96-well plates (10^4 cells/well), washed twice in PBS, and fixed with 4% paraformaldehyde for 30 minutes at room temperature. Synthetic peptides at concentrations of 50, 75, 100 and 200 µM were incubated with the cells at 37 °C for 1 hour and the experiment was carried out as described above. All experiments were done in triplicate and the mean values of OD were used to calculate the rate of competitive inhibition according to the following formula: inhibition ratio = (OD control − OD phage)/OD control × 100, where OD control and OD phage represent the OD450 nm values of phage binding on cells incubated with PBS and with the peptide, respectively.

CC(C)C[C@H](NC(=O)[C@H](CC(=O)O)NC(=O)[C@H](CC(C)C)NC(=O)[C@@H]1CCCN1C(=O)[C@H](CS)NC(=O)[C@H](C)N)C(=O)N[C@@H](CCCNC(=N)N)C(=O)N[C@@H](CO)C(=O)N1CCC[C@H]1C(=O)N[C@@H](CS)C(=O)NCC(N)=O [B1.12] (H-ACPLDLRSPCG-NH2; N-terminus and C-terminus assumed)
effect on binding of phage B1.12 to target B1 (B1 peptide; increasing peptide concentration, triplicate): the inhibition ratio increased gradually | inhibition ratio (B1 peptide; peptide 400 µM, triplicate mean): approximately 43% | pAkt expression (pAkt): low in B1.12-treated-C666.1 compared to those in the untreated or treated with control peptide; also recorded: decreased in B1.12-treated-C666.1 compared to those in the untreated or treated with control peptide more markedly for pAkt | inhibition ratio (HeLa/LMP1 cells): 45%
